We go through 12 compounds from US6767918B2, “N-(aryl/heteroarylacetyl) amino acid esters, pharmaceutical compositions comprising same, and methods for inhibiting β-amyloid peptide release and/or its synthesis by use of such compounds” (Athena Neurosciences, Inc., priority 1996, dated 2004).

Molecules are shown by their SMILES.

One may read the melting point as the temperature, or range, at which the solid turns liquid.

As for `Cc1ccc(CC(=O)NC(C)C(=O)OCC(C)C)cc1` (racemic) [Example 6, N-[(4-methylphenyl)acetyl]-D,L-alanine iso-butyl ester], the melting point lay within 102 to 104 °C.

Regarding `CC(C)COC(=O)C(C)NC(=O)Cc1cccnc1` (racemic) [Example 7, N-[(3-pyridyl)acetyl]-D,L-alanine iso-butyl ester], the melting point was in the range of 62 to 64 °C.

For `CC(C)COC(=O)C(C)NC(=O)Cc1ccncc1` (racemic) [Example 12, N-[(4-pyridyl)acetyl]-D,L-alanine iso-butyl ester], the melting point lay within 64 to 66 °C.

Compound `CC(C)COC(=O)[C@H](C)NC(=O)Cc1ccc(Cl)cc1` [Example 4, N-[(4-chlorophenyl)acetyl]-L-alanine iso-butyl ester] displayed a melting point of 111 to 113 °C.

The compound `CC(C)COC(=O)[C@H](C)NC(=O)Cc1ccc(Cl)c(Cl)c1` [Example 5, N-[(3,4-dichlorophenyl)acetyl]-L-alanine iso-butyl ester] had a melting point of 81 to 83 °C.

Regarding `CC(C)COC(=O)[C@H](C)NC(=O)Cc1cccc2ccccc12` [Example 8, N-[(1-naphthyl)acetyl]-L-alanine iso-butyl ester], the melting point was 69 to 73 °C.

Regarding `CC(C)COC(=O)[C@H](C)NC(=O)Cc1ccc2ccccc2c1` [Example 9, N-[(2-naphthyl)acetyl]-L-alanine iso-butyl ester], the melting point lay within 128 to 129 °C.

The compound `CC(C)COC(=O)[C@H](C)NC(=O)Cc1ccccc1` [Example 13, N-(phenylacetyl)-L-alanine iso-butyl ester] came in with a melting point of 45 to 47 °C.

Compound `CCOC(=O)[C@H](C)NC(=O)Cc1cc(F)cc(F)c1` [Example 64, N-[(3,5difluorophenyl)acetyl]alanine ethyl ester] came in with a melting point of 93 to 95 °C.

With `CC(C)COC(=O)[C@H](C)NC(=O)CC1CCCCC1` [Example 70, N-(cyclohexylacetyl)-L-alanine iso-butyl ester], the melting point fell in the range of 92 to 93 °C.

Compound `CC(C)COC(=O)[C@H](C)NC(=O)CC1CCCC1` [Example 71, N-(cyclopentylacetyl)-L-alanine iso-butyl ester] registered a melting point of 62 to 64 °C.

For the compound `CC(C)COC(=O)[C@H](C)NC(=O)CC1=CCCCC1` [Example 72, N-[(cyclohex-1-enyl)acetyl]-L-alanine iso-butyl ester], the melting point fell in the range of 49 to 51 °C.
